Experimental data as given in ChEMBL document CHEMBL6134848, “Deuteration Strategy-Inspired Design of Novel Diarylpyrimidine Derivatives as Potent Non-Nucleoside Reverse Transcriptase Inhibitors Featuring Improved Efficacy, Selectivity, and Druggability” (J Med Chem, 2025).

Experiments:
[1] = Cytotoxicity against human MT4 cells assessed as reduction in cell viability by MTT assay; type: toxicity, cell-based
[2] = Selectivity index, ratio of CC50 for cytotoxicity against human MT4 cells to EC50 for antiviral activity against wild-type HIV-1 IIIB infected in human MT4 cells; type: toxicity, cell-based; details: read-out: Ratio CC50/EC50
[3] = Metabolic stability in human liver microsomes assessed as half life at 1 uM measured up to 45 mins by LC/MS/MS analysis; type: ADME, Microsome; details: microsomes, 0.75 h, 1 µM
[4] = test system: Human immunodeficiency virus 1; assay: Potency index, ratio of ETR EC50 to test compound EC50 for antiviral activity against wild-type HIV-1 IIIB infected in human MT4 cells assessed as protection against virus-induced cytopathicity measured after 5 days post-infection by MTT assay; type: functional
[5] = test system: Human immunodeficiency virus 1; assay: Antiviral activity against drug-resistant HIV-1 harboring RT L100I mutant infected in human MT4 cells assessed as protection against virus-induced cytopathicity measured after 5 days post-infection by MTT assay; type: functional, organism-based; details: Human immunodeficiency virus 1, MT4, 120 h
[6] = test system: Human immunodeficiency virus 1; assay: Antiviral activity against drug-resistant HIV-1 harboring RT K103N mutant infected in human MT4 cells assessed as protection against virus-induced cytopathicity measured after 5 days post-infection by MTT assay; type: functional, organism-based; details: Human immunodeficiency virus 1, MT4, 120 h
[7] = test system: Human immunodeficiency virus 1; assay: Antiviral activity against drug-resistant HIV-1 harboring RT F227L/V106A mutant infected in human MT4 cells assessed as protection against virus-induced cytopathicity measured after 5 days post-infection by MTT assay; type: functional, organism-based; details: Human immunodeficiency virus 1, MT4, 120 h
[8] = test system: Human immunodeficiency virus 1; assay: Antiviral activity against drug-resistant HIV-1 harboring RT RES056 mutant infected in human MT4 cells assessed as protection against virus-induced cytopathicity measured after 5 days post-infection by MTT assay; type: functional, organism-based; details: Human immunodeficiency virus 1, MT4, 120 h
[9] = molecular target: T1, Voltage-gated inwardly rectifying potassium channel KCNH2 (Homo sapiens, UniProt Q12809); assay: Inhibition of hERG expressed in CHO cells by manual patch-clamp electrophysiology; type: toxicity, cell-based
[10] = molecular target: T1, Voltage-gated inwardly rectifying potassium channel KCNH2; assay: Inhibition of hERG expressed in CHO cells assessed as fold increase by manual patch-clamp electrophysiology relative to RPV; type: toxicity, cell-based
Cytochrome P450 2B6 = molecular target: T2, Cytochrome P450 2B6 (Homo sapiens, UniProt P20813); assay: Inhibition of CYP2B6 in human liver microsomes using bupropion as substrate incubated for 15 to 45 mins by; type: ADME, Microsome
T2 sequence (P20813 whole entry): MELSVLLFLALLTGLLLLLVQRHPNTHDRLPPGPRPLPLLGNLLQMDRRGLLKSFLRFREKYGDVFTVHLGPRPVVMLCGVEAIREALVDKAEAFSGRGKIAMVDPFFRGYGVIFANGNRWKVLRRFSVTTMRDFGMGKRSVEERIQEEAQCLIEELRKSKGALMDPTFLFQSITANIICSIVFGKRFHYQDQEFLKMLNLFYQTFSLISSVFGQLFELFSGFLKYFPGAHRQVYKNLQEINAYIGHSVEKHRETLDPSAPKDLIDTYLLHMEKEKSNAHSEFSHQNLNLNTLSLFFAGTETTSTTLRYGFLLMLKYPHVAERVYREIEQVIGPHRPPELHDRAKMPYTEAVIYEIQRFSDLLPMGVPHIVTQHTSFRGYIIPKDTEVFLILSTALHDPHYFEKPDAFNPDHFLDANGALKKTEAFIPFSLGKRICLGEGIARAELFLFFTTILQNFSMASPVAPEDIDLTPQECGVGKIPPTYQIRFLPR

Cytochrome P450 2C9 = Cytochrome P450 2C9 (Homo sapiens, UniProt P11712); assay: Inhibition of CYP2C9 in human liver microsomes using diclofenac as substrate incubated for 15 to 45 mins by; type: ADME, Microsome
Cytochrome P450 2C19 = Cytochrome P450 2C19 (Homo sapiens, UniProt P33261); assay: Inhibition of CYP2C19 in human liver microsomes using S-mephenytoin as substrate incubated for 15 to 45 mins by; type: ADME, Microsome
Cytochrome P450 2D6 = Cytochrome P450 2D6 (Homo sapiens, UniProt P10635); assay: Inhibition of CYP2D6 in human liver microsomes using dextromethorphan as substrate incubated for 15 to 45 mins by; type: ADME, Microsome
[11] = Stability in human plasma assessed as compound remaining at 1 uM measured after 2 hrs by LC-MS/MS analysis; type: ADME, cell-free; details: read-out: Stability
[12] = Stability in human plasma assessed as compound remaining at 1 uM measured after 3 hrs by LC-MS/MS analysis; type: ADME, cell-free; details: read-out: Stability
[13] = Metabolic stability in rat liver microsomes assessed as half life at 1 uM measured up to 45 mins by LC/MS/MS analysis; type: ADME, Microsome; details: 0.75 h
[14] = Metabolic stability in dog liver microsomes assessed as half life at 1 uM measured up to 45 mins by LC/MS/MS analysis; type: ADME, Canis lupus familiaris, Microsome; details: microsomes, 0.75 h, 1 µM
[15] = Stability in human liver microsomes assessed as compound remaining at […] preincubated for 30 mins in ice-water bath followed by incubation at 37 degreeC for 5 mins and further addition of NADPH/UDPGA measured 20.86 mins by LC-MS/MS analysis; type: ADME, Microsome; details: time 55.86 min, read-out: Stability
[16] = Protein binding in human plasma at 1 uM incubated for 6 hrs; type: ADME, cell-free; details: read-out: PPB (converted)
[17] = Protein binding in human plasma assessed as drug recovery rate at 1 uM incubated for 6 hrs; type: ADME, cell-free; details: read-out: Drug recovery
[18] = AUC (0 to infinity) in Sprague-Dawley rat at 1 mg/kg, iv measured for 0.083 to 24 hrs by LC-MS/MS analysis; type: ADME, organism-based; details: in vivo, time 0.083-24 hrs
[19] = MRT (0 to infinity) in Sprague-Dawley rat at 1 mg/kg, iv measured for 0.083 to 24 hrs by LC-MS/MS analysis; type: ADME, organism-based; details: in vivo, time 0.083-24 hrs
[20] = AUC (0 to infinity) in Sprague-Dawley rat at 10 mg/kg, po measured for 0.083 to 24 hrs by LC-MS/MS analysis; type: ADME, organism-based; details: in vivo, time 0.083-24 hrs
[21] = MRT (0 to t) in Sprague-Dawley rat at 10 mg/kg, po measured for 0.083 to 24 hrs by LC-MS/MS analysis; type: ADME, organism-based; details: in vivo, time 0.083-24 hrs
[22] = MRT (0 to infinity) in Sprague-Dawley rat at 10 mg/kg, po measured for 0.083 to 24 hrs by LC-MS/MS analysis; type: ADME, organism-based; details: in vivo, time 0.083-24 hrs
[23] = Acute toxicity in ICR mouse assessed as body weight change at 2000 mg/kg, IG measured for 14 days; type: organism-based; details: in vivo, po, 336 h, time 14 day
[24] = Acute toxicity in ICR mouse assessed as animal mortality at 2000 mg/kg, IG measured for 14 days; type: organism-based; details: in vivo, po, 336 h, time 14 day
[25] = Acute toxicity in ICR mouse assessed as pathological change in heart at 2000 mg/kg, IG measured for 14 days by H and E staining based analysis; type: organism-based; details: in vivo, po, 336 h, time 14 day
[26] = Acute toxicity in ICR mouse assessed as pathological change in liver at 2000 mg/kg, IG measured for 14 days by H and E staining based analysis; type: organism-based; details: in vivo, po, 336 h, time 14 day
[27] = Acute toxicity in ICR mouse assessed as pathological change in kidney at 2000 mg/kg, IG measured for 14 days by H and E staining based analysis; type: organism-based; details: in vivo, po, 336 h, time 14 day
[28] = Acute toxicity in ICR mouse assessed as pathological change in brain at 2000 mg/kg, IG measured for 14 days by H and E staining based analysis; type: organism-based; details: in vivo, po, 336 h, time 14 day
[29] = Acute toxicity in ICR mouse assessed as drug tolerance at 2000 mg/kg, IG measured for 14 days; type: organism-based; details: in vivo, po, 336 h, time 14 day

T1 sequence (Q12809 whole entry): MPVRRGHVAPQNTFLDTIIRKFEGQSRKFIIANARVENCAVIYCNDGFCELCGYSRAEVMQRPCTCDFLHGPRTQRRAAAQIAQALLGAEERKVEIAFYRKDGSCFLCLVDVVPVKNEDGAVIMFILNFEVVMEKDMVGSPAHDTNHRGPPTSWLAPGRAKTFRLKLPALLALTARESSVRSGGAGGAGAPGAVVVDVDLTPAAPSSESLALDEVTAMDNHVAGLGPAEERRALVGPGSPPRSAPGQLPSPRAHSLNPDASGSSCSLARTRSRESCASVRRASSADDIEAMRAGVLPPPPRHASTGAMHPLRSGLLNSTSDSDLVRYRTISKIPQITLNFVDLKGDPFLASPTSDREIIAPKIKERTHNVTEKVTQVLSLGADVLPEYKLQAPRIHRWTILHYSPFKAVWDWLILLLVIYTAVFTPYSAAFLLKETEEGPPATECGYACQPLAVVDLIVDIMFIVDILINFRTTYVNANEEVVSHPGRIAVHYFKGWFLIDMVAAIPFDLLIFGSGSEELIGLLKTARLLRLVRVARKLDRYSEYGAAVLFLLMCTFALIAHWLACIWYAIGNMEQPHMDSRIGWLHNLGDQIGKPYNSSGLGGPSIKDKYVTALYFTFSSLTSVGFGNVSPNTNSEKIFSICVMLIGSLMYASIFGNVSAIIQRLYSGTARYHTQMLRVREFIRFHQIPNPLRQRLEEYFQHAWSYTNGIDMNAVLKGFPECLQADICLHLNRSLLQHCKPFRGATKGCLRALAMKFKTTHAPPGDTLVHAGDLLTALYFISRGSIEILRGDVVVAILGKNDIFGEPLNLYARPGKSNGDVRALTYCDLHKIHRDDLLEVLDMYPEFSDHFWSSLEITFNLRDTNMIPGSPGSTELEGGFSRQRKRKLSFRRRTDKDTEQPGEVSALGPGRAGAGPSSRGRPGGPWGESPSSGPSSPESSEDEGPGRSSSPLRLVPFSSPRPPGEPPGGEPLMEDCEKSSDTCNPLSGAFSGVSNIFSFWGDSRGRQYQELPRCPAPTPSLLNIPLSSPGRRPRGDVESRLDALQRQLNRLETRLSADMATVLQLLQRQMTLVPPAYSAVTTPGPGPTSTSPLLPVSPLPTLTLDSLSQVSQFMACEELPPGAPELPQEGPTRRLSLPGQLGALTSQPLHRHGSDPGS
Chain of Cytochrome P450 2D6 (P10635 whole entry): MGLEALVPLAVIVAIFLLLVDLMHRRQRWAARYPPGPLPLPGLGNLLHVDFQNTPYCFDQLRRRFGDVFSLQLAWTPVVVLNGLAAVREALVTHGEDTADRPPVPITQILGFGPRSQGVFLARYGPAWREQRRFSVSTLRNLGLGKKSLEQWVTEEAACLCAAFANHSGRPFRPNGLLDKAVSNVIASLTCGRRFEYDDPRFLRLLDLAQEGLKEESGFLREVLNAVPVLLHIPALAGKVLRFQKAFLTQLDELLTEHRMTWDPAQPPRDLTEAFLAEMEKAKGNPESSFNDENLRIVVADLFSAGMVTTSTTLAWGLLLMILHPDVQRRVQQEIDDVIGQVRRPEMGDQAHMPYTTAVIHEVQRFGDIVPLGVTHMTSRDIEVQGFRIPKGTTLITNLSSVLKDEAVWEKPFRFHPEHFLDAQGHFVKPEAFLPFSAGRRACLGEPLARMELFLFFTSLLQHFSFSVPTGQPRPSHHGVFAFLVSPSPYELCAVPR
Chain of Cytochrome P450 2C19 (P33261 whole entry): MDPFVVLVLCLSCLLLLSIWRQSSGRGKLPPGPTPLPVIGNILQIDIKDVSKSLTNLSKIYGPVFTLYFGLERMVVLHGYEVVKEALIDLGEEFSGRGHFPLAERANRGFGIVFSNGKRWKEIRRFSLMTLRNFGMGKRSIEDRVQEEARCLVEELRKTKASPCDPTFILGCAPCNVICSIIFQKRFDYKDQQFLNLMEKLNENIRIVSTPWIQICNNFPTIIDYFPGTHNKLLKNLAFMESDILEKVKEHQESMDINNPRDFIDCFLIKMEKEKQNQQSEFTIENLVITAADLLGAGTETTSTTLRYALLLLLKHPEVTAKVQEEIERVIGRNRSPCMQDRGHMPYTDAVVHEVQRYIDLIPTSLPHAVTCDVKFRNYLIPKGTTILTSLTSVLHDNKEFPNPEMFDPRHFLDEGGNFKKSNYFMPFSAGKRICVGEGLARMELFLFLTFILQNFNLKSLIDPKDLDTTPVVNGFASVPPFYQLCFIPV
Chain of Cytochrome P450 2C9 (P11712 whole entry): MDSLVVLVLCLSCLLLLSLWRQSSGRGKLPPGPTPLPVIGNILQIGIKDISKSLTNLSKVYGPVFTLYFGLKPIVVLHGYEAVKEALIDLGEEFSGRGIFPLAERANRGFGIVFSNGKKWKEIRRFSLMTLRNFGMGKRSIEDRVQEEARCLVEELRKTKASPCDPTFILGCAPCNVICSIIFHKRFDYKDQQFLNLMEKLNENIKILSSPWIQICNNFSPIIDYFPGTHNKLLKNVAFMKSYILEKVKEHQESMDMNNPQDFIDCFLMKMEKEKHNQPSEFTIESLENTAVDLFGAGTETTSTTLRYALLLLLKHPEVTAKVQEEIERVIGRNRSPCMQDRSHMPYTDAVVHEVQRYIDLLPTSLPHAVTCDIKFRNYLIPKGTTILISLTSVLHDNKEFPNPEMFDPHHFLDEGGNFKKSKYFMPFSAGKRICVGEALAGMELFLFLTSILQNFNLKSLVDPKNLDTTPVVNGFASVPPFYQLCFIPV

## [2H]C([2H])([2H])c1cc(C#N)cc(C([2H])([2H])[2H])c1Oc1nc(NC2CCN(Cc3ccc(S(N)(=O)=O)cc3)CC2)nc2ccsc12
[1]
  CC50: > 225000 nM
[2]
  selectivity ratio: > 227000
[3]
  t1/2: 18.6 min
[4]
  Ratio EC50: 3.3
[5]
  EC50: 2.61 nM
[6]
  EC50: 1.13 nM
[7]
  EC50: 4.46 nM
[8]
  EC50: 75.1 nM
[9]
  IC50: 932 nM
[10]
  fold change (FC): 1.9
Cytochrome P450 2B6
  IC50: > 10000 nM
Cytochrome P450 2C9
  IC50: > 10000 nM
Cytochrome P450 2C19
  IC50: > 10000 nM
Cytochrome P450 2D6
  IC50: > 10000 nM
[11]
  remaining at 2 h, 1 µM: 92.7%
[12]
  remaining at 3 h, 1 µM: 92.2%
[13]
  t1/2: 19.2 min
[14]
  t1/2: 20.4 min
[15]
  remaining at 0.347667 h: 58.8%
[16]
  fraction unbound at 6 h, 1 µM: 0.005
[17]
  recovery at 6 h, 1 µM: 79.4%
[18]
  AUC(0-inf): 729 ng·h/mL
[19]
  MRT inf: 50.4 min
[20]
  AUC(0-inf): 1800 ng·h/mL
[21]
  MRT last: 143 min
[22]
  MRT inf: 161 min
[23]
  Activity: Non-toxic
[24]
  Activity: Non-toxic
[25]
  Activity: Non-toxic
[26]
  Activity: Non-toxic
[27]
  Activity: Non-toxic
[28]
  Activity: Non-toxic
[29]
  Activity: Non-toxic
